# According to patent US7199099B2, “Methanobactin: a copper binding compound having antibiotic and antioxidant activity isolated from methanotrophic bacteria” (priority 2002, dated 2007):
# Tests used:
# [1] = tested on: washed cell suspensions; assay: Oxygen uptake activity of washed cell suspensions; assay type: cell-based
# Description: Oxygen uptake activity of washed cell suspensions was determined with a Clark oxygen electrode maintained at a constant water temperature of 37° C. Cell samples containing methanobactin were preincubated 5 minutes at 37° C. before the addition of substrate.
# [2] = tested on: Micrococcus luteus X186; assay type: cell-based
# [3] = assay type: physicochemical
# Source text: Solution properties of the methanobactin varied with metal binding and pH.
# [4] = tested on: gram-positive bacteria; assay: Bacteriocidal activity against gram-positive bacteria; assay type: cell-based, Staphylococci, Streptococci and Enterococci; conditions: including vancomycin resistant and methicillin-resistant strains
# Description: (§1) Enterococcus fecalus was cultured aerobically on Brain Heart Infusion broth at 37° C., Staphyloccus aureus, Escherichia coli, X161, and Bacillus thuringiensis were cultured aerobically on Lauria-Burtani broth at 37° C., and Listeria monocytogenes was grown on Trypticase soy broth containing 0.6% yeast extract at 35° C. Minimum inhibitory concentrations were determined as previously described (A. F. Mendoca and S. J. Knabel. 1994. A novel strictly anaerobic recovery and enrichment system incorporating lithium for detection of heat-injured Listeria monocytogenes in pasteurized milk containing background microflora. Appl. Environ. Microbiol. 60: 4001–4008).
# [5] = tested on: Candida albicans, X657; assay: Antimicrobial activity, Candida albicans X657; assay type: cell-based; conditions: purified methanobactin
# [6] = tested on: gram-negative bacteria; assay: Activity against gram-negative bacteria; assay type: cell-based
# [7] = tested on: Escherichia coli, X161; assay: Antimicrobial activity, Escherichia coli X161; assay type: cell-based; conditions: purified methanobactin
# Description: as §1
smiles,measurement,setting,value
"CSCC[C@H](NC(=O)[C@@H]1CSSC[C@H](NC(=O)[C@H](CO)NC(=O)CN/C(S)=C2/N=C(C(=O)CC(C)C)OC2=O)C(=O)N[C@@H](Cc2ccc(O)cc2)C(=O)N2CCC[C@H]2C2=N/C(=C(\S)N[C@@H](CO)C(=O)N1)C(=O)O2)C(=O)O [methanobactin, N-2-isopropylester-(4-thionyl-5-hydroxy-imidazole)-Gly^1-Ser^2-Cys^3-Tyr^4-pyrrolidine-(4-thionyl-5-hydroxy-imidazole)-Ser^5-Cys^6-Met^7]",effect on respiration,[1]; higher concentrations,respiratory inhibitor
same,effect on respiration,[1]; low concentrations,respiratory uncoupler
same,MIC,[2],24 µg/mL
same,solubility,[3],very soluble
same,bacteriocidal activity against gram-positive bacteria,[4],bacteriocidal activity
same,Antimicrobial Activity,[5],0
same,effectiveness against gram-negative bacteria,[6]; methanobactin by itself,not been found to be effective
same,activity against gram negative bacteria in combination with a metal chelator,"[6]; with EDTA, at least about 1:1 methanobactin to EDTA",bacteriocidal
same,Antimicrobial Activity,[7],0
